Assay results: publication PMC6001238, “Iterative Chemical Engineering of Vancomycin Leads to Novel Vancomycin Analogs With a High in Vitro Therapeutic Index” (Frontiers in Microbiology, 2018)
Values after ≈ are worked out from the molar mass of the structure shown.

Experiments:
[1] = test system: human T-lymphocyte (CEM) cells; assay: Cytostatic activity, CEM cell proliferation; type: cell-based; conditions: mean ± SD of three experiments; highest concentration tested 250 µM; 3 days; read-out: Toxicity (IC50) CEM
Description: (§1) Murine leukemia (L1210), human T-lymphocyte (CEM) and the human cervix carcinoma (HeLa) cell line were suspended at 300,000–500,000 cells/mL of culture medium, and 100 μL of a cell suspension was added to 100 μL of an appropriate dilution of the test compounds in wells of 96-well microtiter plates. After incubation at 37°C for 2 (L1210), 3 (CEM), or 4 (HeLa) days, the cell number was determined using a Coulter counter. The IC50 was defined per cell type as the compound concentration required to inhibit cell proliferation by 50% compared to the negative control ([Glowacka et al., 2017]).

MRSA KS89 = assay: MIC, broth microdilution, MRSA KS89; type: cell-based, Staphylococcus aureus; conditions: for MIC-fold improvement vs. vancomycin: MRSA KS8, ratio of MIC of vancomycin and MIC of analogue; for MIC: Staphylococcus aureus MRSA KS8, read-out: MIC
Description: (§2) The minimum inhibitory concentration (MIC) was determined using the broth microdilution method according to the antimicrobial susceptibility testing standards of the clinical and laboratory standards institute ([Clinical and Laboratory Standards Institute [CLSI], 2012]). Ultrapure water and non-inoculated broth were used as controls. In one case, a final concentration of 10 μM vancomycin was included with the vancomycin analog or control antibiotic.

MRSA KS6 = assay: MIC, broth microdilution, MRSA KS6; type: cell-based, Staphylococcus aureus; conditions: for MIC-fold improvement vs. vancomycin: MRSA KS6, ratio of MIC of vancomycin and MIC of analogue; for MIC: Staphylococcus aureus MRSA KS6, read-out: MIC
Description: as §2

E. faecalis VRE 6 = assay: MIC, broth microdilution, vancomycin-resistant E. faecalis VRE 6 (VanA); type: cell-based, Enterococcus faecalis; conditions: for MIC: Enterococcus faecalis VRE 6 (vancomycin-resistant), read-out: MIC; for MIC-fold improvement vs. vancomycin: VRE 6, ratio of MIC of vancomycin and MIC of analogue
Description: as §2

E. faecalis VSE 1 = assay: MIC, broth microdilution, vancomycin-sensitive E. faecalis (VSE 1); type: cell-based, Enterococcus faecalis; conditions: for MIC: Enterococcus faecalis VSE 1 (vancomycin-sensitive), read-out: MIC; for MIC-fold improvement vs. vancomycin: VSE 1, ratio of MIC of vancomycin and MIC of analogue
Description: as §2

S. aureus VISA/HIP5827 = assay: MIC, broth microdilution, vancomycin-intermediate S. aureus VISA HIP5827; type: cell-based, Staphylococcus aureus; conditions: for MIC: Staphylococcus aureus VISA/HIP5827, read-out: MIC; for MIC-fold improvement vs. vancomycin: VISA/HIP5827, ratio of MIC of vancomycin and MIC of analogue
Description: as §2

[2] = test system: L1210, CEM and HeLa cell lines; assay: Cytostatic activity, average or summary over L1210, CEM and HeLa; type: cell-based; conditions: average of L1210, CEM and HeLa; read-out: Toxicity (IC50) Average
Description: as §1

[3] = test system: S. aureus VSSA (ATCC 6538); assay: MIC, broth microdilution, vancomycin-sensitive S. aureus (VSSA/MSSA, ATCC 6538); type: cell-based, Staphylococcus aureus; conditions: for MIC: Staphylococcus aureus VSSA, read-out: MIC; for MIC-fold improvement vs. vancomycin: VSSA, ratio of MIC of vancomycin and MIC of analogue
Description: as §2

E. faecalis VRE 29 = assay: MIC, broth microdilution, vancomycin-resistant E. faecalis VRE 29 (VanA); type: cell-based, Enterococcus faecalis; conditions: for MIC: Enterococcus faecalis VRE 29 (vancomycin-resistant), read-out: MIC; for MIC-fold improvement vs. vancomycin: VRE 29, ratio of MIC of vancomycin and MIC of analogue
Description: as §2

MRSA KS2 = assay: MIC, broth microdilution, MRSA KS2; type: cell-based, Staphylococcus aureus; conditions: for MIC-fold improvement vs. vancomycin: MRSA KS2, ratio of MIC of vancomycin and MIC of analogue; for MIC: Staphylococcus aureus MRSA KS2, read-out: MIC
Description: as §2

MRSA KS1 = assay: MIC, broth microdilution, MRSA KS1; type: cell-based, Staphylococcus aureus; conditions: for MIC-fold improvement vs. vancomycin: MRSA KS1, ratio of MIC of vancomycin and MIC of analogue; for MIC: Staphylococcus aureus MRSA KS1, read-out: MIC
Description: as §2

E. faecalis VRE 37 = assay: MIC, broth microdilution, vancomycin-resistant E. faecalis VRE 37 (VanA); type: cell-based, Enterococcus faecalis; conditions: for MIC: Enterococcus faecalis VRE 37 (vancomycin-resistant), read-out: MIC; for MIC-fold improvement vs. vancomycin: VRE 37, ratio of MIC of vancomycin and MIC of analogue
Description: as §2

E. faecalis VRE 53 = assay: MIC, broth microdilution, vancomycin-resistant E. faecalis VRE 53 (VanA); type: cell-based, Enterococcus faecalis; conditions: for MIC: Enterococcus faecalis VRE 53 (vancomycin-resistant), read-out: MIC; for MIC-fold improvement vs. vancomycin: VRE 53, ratio of MIC of vancomycin and MIC of analogue
Description: as §2

[4] = test system: human cervix carcinoma (HeLa) cells; assay: Cytostatic activity, HeLa cell proliferation; type: cell-based; conditions: mean ± SD of three experiments; highest concentration tested 250 µM; 4 days; read-out: Toxicity (IC50) HeLa
Description: as §1

S. aureus VRSA = assay: MIC, broth microdilution, vancomycin-resistant S. aureus (VRSA); type: cell-based, Staphylococcus aureus; conditions: for MIC: Staphylococcus aureus VRSA, read-out: MIC; for MIC-fold improvement vs. vancomycin: VRSA, ratio of MIC of vancomycin and MIC of analogue
Description: as §2

[5] = test system: Murine leukemia (L1210) cells; assay: Cytostatic activity, L1210 cell proliferation; type: cell-based; conditions: mean ± SD of three experiments; highest concentration tested 250 µM; 2 days; read-out: Toxicity (IC50) L1210
Description: as §1

SMILES	IC50 [1]	MIC-fold improvement vs. vancomycin (MRSA KS89)	MIC (MRSA KS89)	MIC-fold improvement vs. vancomycin (MRSA KS6)	MIC (MRSA KS6)	MIC (E. faecalis VRE 6)	MIC-fold improvement vs. vancomycin (E. faecalis VRE 6)	MIC (E. faecalis VSE 1)	MIC-fold improvement vs. vancomycin (E. faecalis VSE 1)	MIC (S. aureus VISA/HIP5827)	MIC-fold improvement vs. vancomycin (S. aureus VISA/HIP5827)	IC50 [2]	MIC [3]	MIC-fold improvement vs. vancomycin [3]	MIC (E. faecalis VRE 29)	MIC-fold improvement vs. vancomycin (MRSA KS2)	MIC (MRSA KS2)	MIC-fold improvement vs. vancomycin (MRSA KS1)	MIC (MRSA KS1)	MIC (E. faecalis VRE 37)	further results
CN[C@H](CC(C)C)C(=O)N[C@H]1C(=O)N[C@@H](CC(N)=O)C(=O)N[C@H]2C(=O)N[C@H]3C(=O)N[C@H](C(=O)N[C@H](C(=O)NCC(=O)Nc4ccccc4)c4cc(O)cc(O)c4-c4cc3ccc4O)[C@H](O)c3ccc(c(Cl)c3)Oc3cc2cc(c3O[C@@H]2O[C@H](CO)[C@@H](O)[C@H](O)[C@H]2O[C@H]2C[C@](C)(N)[C@H](O)[C@H](C)O2)Oc2ccc(cc2Cl)[C@H]1O [Vanc-3]	> 250 µM	1	0.78 µM (≈ 1.23 µg/mL)	1	0.78 µM (≈ 1.23 µg/mL)	12.5 µM (≈ 19.8 µg/mL)	16	0.78 µM (≈ 1.23 µg/mL)	2	0.78 µM (≈ 1.23 µg/mL)	8	> 250 µM	0.78 µM (≈ 1.23 µg/mL)	1	25 µM (≈ 39.5 µg/mL)	1	0.78 µM (≈ 1.23 µg/mL)	1	0.78 µM (≈ 1.23 µg/mL)	25 µM (≈ 39.5 µg/mL)	MIC-fold improvement vs. vancomycin (E. faecalis VRE 29): 16; MIC (E. faecalis VRE 53): 25 µM (≈ 39.5 µg/mL); MIC-fold improvement vs. vancomycin (E. faecalis VRE 53): 16; IC50 [4]: > 250 µM; MIC (S. aureus VRSA): 25 µM (≈ 39.5 µg/mL); MIC-fold improvement vs. vancomycin (S. aureus VRSA): 4; IC50 [5]: > 250 µM
CN[C@H](CC(C)C)C(=O)N[C@H]1C(=O)N[C@@H](CC(N)=O)C(=O)N[C@H]2C(=O)N[C@H]3C(=O)N[C@H](C(=O)N[C@H](C(=O)NCC(=O)Nc4ccc(OC)cc4)c4cc(O)cc(O)c4-c4cc3ccc4O)[C@H](O)c3ccc(c(Cl)c3)Oc3cc2cc(c3O[C@@H]2O[C@H](CO)[C@@H](O)[C@H](O)[C@H]2O[C@H]2C[C@](C)(N)[C@H](O)[C@H](C)O2)Oc2ccc(cc2Cl)[C@H]1O [Vanc-5]	> 250 µM	1	0.78 µM (≈ 1.26 µg/mL)	1	0.78 µM (≈ 1.26 µg/mL)	6.25 µM (≈ 10.1 µg/mL)	32	0.78 µM (≈ 1.26 µg/mL)	2	0.39 µM (≈ 0.628 µg/mL)	16	> 250 µM	0.39 µM (≈ 0.628 µg/mL)	2	12.5 µM (≈ 20.1 µg/mL)	2	0.39 µM (≈ 0.628 µg/mL)	1	0.78 µM (≈ 1.26 µg/mL)	12.5 µM (≈ 20.1 µg/mL)	MIC-fold improvement vs. vancomycin (E. faecalis VRE 29): 32; MIC-fold improvement vs. vancomycin (E. faecalis VRE 37): 64; MIC (E. faecalis VRE 53): 12.5 µM (≈ 20.1 µg/mL); MIC-fold improvement vs. vancomycin (E. faecalis VRE 53): 32; IC50 [4]: > 250 µM; MIC (S. aureus VRSA): 12.5 µM (≈ 20.1 µg/mL); MIC-fold improvement vs. vancomycin (S. aureus VRSA): 8; IC50 [5]: > 250 µM
CN[C@H](CC(C)C)C(=O)N[C@H]1C(=O)N[C@@H](CC(N)=O)C(=O)N[C@H]2C(=O)N[C@H]3C(=O)N[C@H](C(=O)N[C@H](C(=O)NCC(=O)Nc4ccc(Cl)cc4)c4cc(O)cc(O)c4-c4cc3ccc4O)[C@H](O)c3ccc(c(Cl)c3)Oc3cc2cc(c3O[C@@H]2O[C@H](CO)[C@@H](O)[C@H](O)[C@H]2O[C@H]2C[C@](C)(N)[C@H](O)[C@H](C)O2)Oc2ccc(cc2Cl)[C@H]1O [Vanc-6]	159 ± 13 µM	2	0.39 µM (≈ 0.63 µg/mL)	2	0.39 µM (≈ 0.63 µg/mL)	3.13 µM (≈ 5.06 µg/mL)	64	0.39 µM (≈ 0.63 µg/mL)	4	0.39 µM (≈ 0.63 µg/mL)	16	167 µM	0.39 µM (≈ 0.63 µg/mL)	2	6.25 µM (≈ 10.1 µg/mL)	2	0.39 µM (≈ 0.63 µg/mL)	2	0.39 µM (≈ 0.63 µg/mL)	12.5 µM (≈ 20.2 µg/mL)	MIC-fold improvement vs. vancomycin (E. faecalis VRE 37): 64; MIC (E. faecalis VRE 53): 12.5 µM (≈ 20.2 µg/mL); IC50 [4]: 91 ± 33 µM; MIC (S. aureus VRSA): 3.13 µM (≈ 5.06 µg/mL); MIC-fold improvement vs. vancomycin (S. aureus VRSA): 32; IC50 [5]: > 250 µM
